# ChEMBL document CHEMBL4007389, “Discovery and evaluation of inhibitors to the immunosuppressive enzyme indoleamine 2,3-dioxygenase 1 (IDO1): Probing the active site-inhibitor interactions” (Eur J Med Chem, 2017)
# Legend:
# [1] = biological target: T1, Indoleamine 2,3-dioxygenase 1 (Homo sapiens, UniProt P14902); assay: Inhibition of recombinant human IDO1 expressed in bacterial expression system at 50 uM using L-Tryptophan as substrate after 25 mins by fluorescence assay relative to control
# Target sequence in this assay (P14902 whole entry, looked up): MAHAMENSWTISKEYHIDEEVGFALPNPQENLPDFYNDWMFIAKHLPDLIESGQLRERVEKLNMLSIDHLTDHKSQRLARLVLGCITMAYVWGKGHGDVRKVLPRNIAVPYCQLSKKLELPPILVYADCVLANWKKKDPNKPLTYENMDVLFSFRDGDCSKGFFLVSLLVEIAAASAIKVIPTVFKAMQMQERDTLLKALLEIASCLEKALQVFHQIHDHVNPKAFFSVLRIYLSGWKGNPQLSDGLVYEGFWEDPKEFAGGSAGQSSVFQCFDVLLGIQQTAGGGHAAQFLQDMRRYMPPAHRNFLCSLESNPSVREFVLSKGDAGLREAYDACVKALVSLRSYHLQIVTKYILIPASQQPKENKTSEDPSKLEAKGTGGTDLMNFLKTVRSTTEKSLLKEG
# [2] = biological target: T1, Indoleamine 2,3-dioxygenase 1; assay: Inhibition of recombinant human IDO1 expressed in bacterial expression system using L-Tryptophan as substrate after 25 mins in absence of GSH and presence of tween20 by fluorescence assay
# Target sequence in this assay (P14902 whole entry): as the sequence (P14902 whole entry, looked up) above
# Homo sapiens = organism: Homo sapiens; assay: Selectivity ratio of IC50 for recombinant human IDO1 S167A mutant expressed in Escherichia coli SG13009(pREP4) to IC50 for recombinant human IDO1 expressed in bacterial expression system
# [3] = test system: Indoleamine 2,3-dioxygenase 1 (Homo sapiens), P14902 [S167A]; assay: Inhibition of recombinant human IDO1 S167A mutant expressed in Escherichia coli SG13009(pREP4) at 20 uM using L-Tryptophan as substrate after 25 mins by fluorescence assay relative to control
# Sequence of Indoleamine 2,3-dioxygenase 1 (Homo sapiens), P14902 [S167A] (P14902 whole entry S167A): as the sequence (P14902 whole entry, looked up) above, with S167A counted along it
# [4] = biological target: Indoleamine 2,3-dioxygenase 1 (Homo sapiens, UniProt P14902, S167A)
# Sequence of Indoleamine 2,3-dioxygenase 1 (Homo sapiens, UniProt P14902, S167A) (P14902 whole entry S167A): as the sequence (P14902 whole entry, looked up) above, with S167A counted along it
# [5] = test system: Indoleamine 2,3-dioxygenase 1 (Homo sapiens), P14902 [C129A]; assay: Inhibition of recombinant human IDO1 C129A mutant expressed in Escherichia coli SG13009(pREP4) at 20 uM using L-Tryptophan as substrate after 25 mins by fluorescence assay relative to control
# Sequence of Indoleamine 2,3-dioxygenase 1 (Homo sapiens), P14902 [C129A] (P14902 whole entry C129A): as the sequence (P14902 whole entry, looked up) above, with C129A counted along it
# [6] = biological target: Indoleamine 2,3-dioxygenase 1 (Homo sapiens, UniProt P14902, C129A); assay: Inhibition of recombinant human IDO1 C129A mutant expressed in Escherichia coli SG13009(pREP4) using L-Tryptophan as substrate after 25 mins by fluorescence assay
# Sequence of Indoleamine 2,3-dioxygenase 1 (Homo sapiens, UniProt P14902, C129A) (P14902 whole entry C129A): as the sequence (P14902 whole entry, looked up) above, with C129A counted along it
# [7] = Cytotoxicity against mouse LLTC cells assessed as reduction in cell viability after 24 hrs by MTT assay; type: cell-based; details: read-out: LC50
# [8] = biological target: T1, Indoleamine 2,3-dioxygenase 1; assay: Inhibition of recombinant human IDO1 expressed in bacterial expression system using L-Tryptophan as substrate after 25 mins in presence of GSH and tween20 by fluorescence assay
# Target sequence in this assay (P14902 whole entry): as the sequence (P14902 whole entry, looked up) above
# [9] = biological target: T1, Indoleamine 2,3-dioxygenase 1; assay: Inhibition of recombinant human IDO1 expressed in bacterial expression system using L-Tryptophan as substrate after 25 mins in absence of GSH and tween20 by fluorescence assay
# Target sequence in this assay (P14902 whole entry): as the sequence (P14902 whole entry, looked up) above
# [10] = biological target: T1, Indoleamine 2,3-dioxygenase 1; assay: Inhibition of full length recombinant human His-tagged IDO1 expressed in mouse LLTC cells using L-tryptophan as substrate after 24 hrs; type: cell-based
# Target sequence in this assay (P14902 whole entry): as the sequence (P14902 whole entry, looked up) above
# [11] = biological target: T1, Indoleamine 2,3-dioxygenase 1; details: 30 uM
# Target sequence in this assay (P14902 whole entry, looked up): as above
# [12] = biological target: T1, Indoleamine 2,3-dioxygenase 1; assay: Inhibition of recombinant human IDO1 expressed in bacterial expression system at 100 uM using L-Tryptophan as substrate after 25 mins by fluorescence assay relative to control
# Target sequence in this assay (P14902 whole entry, looked up): as above
# [13] = biological target: T1, Indoleamine 2,3-dioxygenase 1; assay: Inhibition of recombinant human IDO1 expressed in bacterial expression system at 150 uM using L-Tryptophan as substrate after 25 mins by fluorescence assay relative to control
# Target sequence in this assay (P14902 whole entry, looked up): as above
# [14] = biological target: T1, Indoleamine 2,3-dioxygenase 1; assay: Inhibition of recombinant human IDO1 expressed in bacterial expression system at 250 uM using L-Tryptophan as substrate after 25 mins by fluorescence assay relative to control
# Target sequence in this assay (P14902 whole entry, looked up): as above
# [15] = biological target: T1, Indoleamine 2,3-dioxygenase 1; assay: Inhibition of recombinant human IDO1 expressed in bacterial expression system at 200 uM using L-Tryptophan as substrate after 25 mins by fluorescence assay relative to control
# Target sequence in this assay (P14902 whole entry, looked up): as above
# [16] = biological target: T1, Indoleamine 2,3-dioxygenase 1; assay: Inhibition of recombinant human IDO1 expressed in bacterial expression system at 350 uM using L-Tryptophan as substrate after 25 mins by fluorescence assay relative to control
# [17] = biological target: T1, Indoleamine 2,3-dioxygenase 1; assay: Inhibition of recombinant human IDO1 expressed in bacterial expression system at 400 uM using L-Tryptophan as substrate after 25 mins by fluorescence assay relative to control
# [18] = biological target: T1, Indoleamine 2,3-dioxygenase 1; details: 80 uM
# [19] = test system: Indoleamine 2,3-dioxygenase 1 (Homo sapiens), P14902 [S167A]; assay: Inhibition of recombinant human IDO1 S167A mutant expressed in Escherichia coli SG13009(pREP4) at 400 uM using L-Tryptophan as substrate after 25 mins by fluorescence assay relative to control
SMILES,IC50 [2],Ratio IC50 (Homo sapiens),IC50 [4],further results
COc1ccc(C2=C(N)c3ccccc3C2=O)cc1,–,–,–,inhibition [1]: 13%
CC(=O)OCCn1c2nc(=O)[nH]c(=O)c-2nc2cc(C)c(C)cc21,31.3 µM,32,1000 µM,inhibition [3]: -8%
c1ccc2c(c1)Nc1ccncc1S2,422 µM,–,–,inhibition [5]: 38.8%; IC50 [6]: 31.6 µM
Oc1cccc(-c2nc3c4ccccc4c4ccccc4c3[nH]2)c1,112 µM,2,173 µM,–
COc1ccc(Nc2ccc([N+](=O)[O-])c3nonc23)cc1,96 µM,–,–,–
Nc1nonc1C(=NO)Nc1ccc(F)c(Cl)c1,–,–,–,CC50 at 24 h [7]: > 5 µM
Clc1ccc(SCNc2ccccc2Cl)cc1,4.5 µM,0.2,0.87 µM,IC50 [8]: 1.5 µM; CC50 at 24 h [7]: 40 µM; IC50 [9]: 5.5 µM; IC50 [10]: 6.3 µM; inhibition [11]: < 25%
COc1ccc(C2=[N+]([O-])c3ccccc3C2=O)cc1,1.6 µM,39,63 µM,CC50 at 24 h [7]: 42 µM; IC50 [10]: 2.3 µM
COC12C(COC(N)=O)C3=C(C(=O)C(C)=C(N)C3=O)N1CC1C2N1C (centres undefined),15.7 µM,63.6,1000 µM,inhibition [3]: -4%
NC1=C(c2ccccc2)C(=O)c2ccccc21,–,–,–,inhibition [12]: 14%
O=[N+]([O-])c1ccc(NCSc2ccc(Cl)cc2)cc1,0.8 µM,0.125,0.1 µM,CC50 at 24 h [7]: 40 µM
CCC1=C(c2ccccc2)C(=O)c2ccccc21,–,–,–,inhibition [13]: 20%
COc1cc2c(cc1OC)[N+]([O-])=C(c1ccccc1)C2=O,4.1 to 60 µM,16.7 to 50,206 to 1000 µM,inhibition [3]: 0%; IC50 [8]: 1.5 µM; CC50 at 24 h [7]: 25 µM; IC50 [9]: 9.3 µM; IC50 [10]: 4.3 µM
O=[N+]([O-])c1ccc(Sc2ccc(F)cc2)c2nonc12,8.8 µM,2,17 µM,CC50 at 24 h [7]: > 50 µM; IC50 [10]: 4.6 µM
c1ccc(-c2nc3c4ccccc4c4ccccc4c3[nH]2)cc1,–,–,–,inhibition [14]: 8%
O=C1c2ccccc2CC1c1ccccc1 (centres undefined),–,–,–,inhibition [15]: 21%
COc1ccc(-c2cc3ccccc3[nH]2)cc1,–,–,–,inhibition [15]: 16%
CC(=O)OC1=C(c2ccccc2)C(=O)c2ccccc21,266 µM,–,–,–
Cc1cccc2c1c1ccc3c(c1n2C)C(=O)C=CC3=O,35.6 µM,28.1,1000 µM,inhibition [3]: -5%
Fc1ccccc1-c1nc2c3ccccc3c3ccccc3c2[nH]1,231 µM,0.5,108 µM,–
CC[C@@H](CNc1cc(OC)cc2cccnc12)NC1CCCCC1,54.1 µM,18.5,1000 µM,inhibition [3]: -6%
c1ccc(-c2c[nH]cn2)cc1,–,–,–,CC50 at 24 h [7]: > 1150 µM
COc1ccc(C2=Nc3ccccc3C2=O)cc1,–,–,–,inhibition [16]: 5%
O=C1c2ccccc2C(=O)C1c1ccccc1,–,–,–,inhibition [17]: 20%
Cc1cc(I)ccc1Nc1cc2nonc2cc1C(=O)O,41 µM,1,42 µM,–
O=C(O)c1cc(F)c2nonc2c1Nc1ccc(I)cc1F,43 µM,1,47 µM,CC50 at 24 h [7]: > 233 µM; IC50 [10]: 168 µM
Sc1ccc(Cl)cc1,7.9 µM,0.5,3.5 µM,CC50 at 24 h [7]: 35 µM; IC50 [10]: 9.2 µM
NNC(=O)CNc1cccc(Br)c1,1000 µM,–,–,inhibition [5]: 30.8%; IC50 [6]: 44.9 µM

SMILES,IC50 [2],Ratio IC50 (Homo sapiens),IC50 [4],further results
CC1=CC(C)(C)NC(=S)N1c1cccc2cc(S(N)(=O)=O)ccc12,27.6 µM,36.2,1000 µM,inhibition [3]: -8%
CC(=O)NC1=C(c2ccccc2)C(=O)c2ccccc21,–,–,–,inhibition [12]: 14%
COC(=O)c1cc(F)c2nonc2c1Nc1ccc(I)cc1F,–,–,–,inhibition [14]: 3%
CCn1c2ccccc2nc2cc3c(cc21)c(Cl)c(=O)c1ccccc13,42.5 µM,23.1,980 µM,inhibition [3]: 2%
Oc1ccccc1-c1nc2c3ccccc3c3ccccc3c2[nH]1,3.3 to 9 µM,8 to 109,26 to 980 µM,inhibition [3]: 2%; inhibition [18]: < 25%; IC50 [8]: 4.9 µM; CC50 at 24 h [7]: > 100 µM; IC50 [9]: 7.8 µM; IC50 [10]: 52 µM
Cc1ccccc1-c1nc2ccccc2[nH]1,–,–,–,inhibition [17]: -2%
C=Cc1cc(OC)c2c(c1)c(=O)oc1c2cc(OC)c2c(O)ccc([C@@H]3O[C@H](C)[C@H](O)[C@@](C)(O)[C@H]3O)c21,22.6 µM,10.2,230 µM,inhibition [3]: 8%
O=[N+]([O-])c1ccc(Sc2cccc[n+]2[O-])c2nonc12,24 to 60 µM,5 to 16.7,108 to 1000 µM,inhibition [3]: -1%
Oc1ccccc1-c1nc2ccccc2[nH]1,–,–,–,inhibition [17]: 1%
O=C1C(c2ccccc2)=Nc2ccccc21,–,–,–,CC50 at 24 h [7]: 220 µM; IC50 [10]: 114 µM; inhibition [16]: 9%
c1ccc(NCCSc2nc3ccccc3s2)cc1,115 µM,–,–,inhibition [5]: 70.8%; IC50 [6]: 8.2 µM
COc1c(NC(C)=O)c2ccccc2c2ccccc12,35.6 µM,28.1,1000 µM,inhibition [3]: -9%
Cc1ccc2c(c1)c1ccc3c(c1n2C)C(=O)C=CC3=O,46.7 µM,21.4,1000 µM,inhibition [3]: -4%
O/N=C1\c2ccccc2NC1c1ccccc1 (centres undefined),510 µM,1,366 µM,–
O=[N+]([O-])c1ccc(Nc2ccc(Br)cc2)c2nonc12,68 µM,–,–,–
Oc1ccc(-c2nc3c4ccccc4c4ccccc4c3[nH]2)cc1,522 µM,> 2,–,inhibition [19]: 14%
CC1=NC(SCc2ccc(Cl)cc2Cl)=NC(=O)C1,–,–,–,CC50 at 24 h [7]: > 125 µM; IC50 [10]: 217 µM; inhibition [17]: -8%
O=[N+]([O-])c1cccc2nsnc12,320 µM,2,614 µM,–
Cc1ccccc1-c1nc2c3ccccc3c3ccccc3c2[nH]1,512 µM,1,464 µM,–
O=[N+]([O-])c1ccccc1NCSc1ccc(Cl)cc1,63 µM,–,–,CC50 at 24 h [7]: 52 µM; IC50 [10]: 6.3 µM
O=c1c(O)cccc2cc(O)c(O)c(O)c12 [PURPUROGALLIN],60 µM,16.7,1000 µM,inhibition [3]: -4%
Cc1ccc(NCSc2ccc(Cl)cc2)cc1,–,–,–,inhibition [14]: -1%
Cc1cc(I)ccc1Nc1cc2no[n+]([O-])c2cc1C(=O)O,23 µM,> 44,–,inhibition [19]: 2%
COc1ccc2c(c1)c1ccc3c(c1n2C)C(=O)C=CC3=O,25.5 µM,39.3,1000 µM,inhibition [3]: -5%
O=C1C(c2ccccc2)=[N+]([O-])c2ccccc21,0.87 µM,3,3 µM,CC50 at 24 h [7]: 14 µM; IC50 [10]: 2.3 µM
COc1c(O)ccc2c1CN1CCc3cc4c(cc3C1C2)OCO4 (centres undefined),35.6 µM,28.1,1000 µM,–
Cn1c2ccccc2c2ccc3c(c21)C(=O)C=CC3=O,42.5 µM,23.5,1000 µM,inhibition [3]: -2%
